Assay results taken from PubChem BioAssay AID1902 (Broad Institute, 2009).
Activity calls are given as the source filed them.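 How the source made its calls: active means EC50 no more than a set limit of log units above the highest dose; inactive means the rest.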

The molecules below were run against S. pyogenes SKKanGAS, kanamycin survival, BacTiterGlo, 6 h (assay: S. pyogenes SKKanGAS kanamycin growth inhibitors – SKKanGAS strain, luminescence, dose confirmation, streptokinase promoter inhibitor project, dose response (AID 1902);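 further: lower survival reflects blocked streptokinase promoter driving kanamycin resistance gene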).
`C=CCn1c(NC(=O)c2ccc(C)cc2)nc2ccccc21` showed an EC50 of 9.75 µM.
With `Oc1c(C(Nc2nc3ccccc3s2)c2ccco2)ccc2cccnc12` (centres undefined) the EC50 was 2.98 µM.
Work on `Cc1nn2c(N3CCN(C(=O)c4ccco4)CC3)cc(C(C)(C)C)nc2c1-c1ccccc1` yielded an EC50 of 6.19 µM.
`COc1ccc(OC)c(NC(=O)NCc2cccnc2)c1` was tested, and the EC50 was > 15 µM (inactive).
Molecule `CC(C)(C)c1cc(C(=O)N/N=C/c2ccc([N+](=O)[O-])s2)n[nH]1` has an EC50 of 7.4 µM.
`Cc1cc(C)c2nc(NNC(=O)c3ccc(S(=O)(=O)N4CCc5ccccc5C4)cc3)sc2c1` gave an EC50 of 0.538 µM.
Work on `OC(COc1cccc2ccccc12)CN1CCN(c2ccc(Cl)cc2)CC1` (centres undefined) yielded an EC50 of 15.4 µM.
Molecule `Cc1c(-c2cccc(Cl)c2)nc2ccccc2c1C(=O)OC/C(O)=C(\C#N)c1nc2ccccc2[nH]1` has an EC50 of 1.9 µM.
Molecule `CCOC(=O)c1cc(-c2ccc3c(c2)OCCO3)nc2c1c(C)nn2CCC#N` has an EC50 of 3.42 µM.
`O=C(CSc1nnc(CNC(=O)c2ccccc2)o1)NCc1ccccc1` was tested, and the EC50 was > 15 µM (inactive).
In the case of `O=C(N/N=C/c1sc2ccccc2c1O)c1ccccc1`, the EC50 is reported as 0.929 µM.
`Cc1ccc(/C=C/C(=O)C2C(=O)c3ccccc3C2=O)cc1` showed an EC50 of 1.62 µM.
With `CCCc1nc2ccccc2c(C(=O)OCC(=O)Nc2ccc(S(=O)(=O)N3CCOCC3)cc2)c1CC` the EC50 was 7.15 µM.
In the case of `CC1(C(=O)OCC(=O)Nc2nc(-c3ccc(F)c(F)c3)cs2)CC1(Cl)Cl` (centres undefined), the EC50 is reported as 6.72 µM.
`Cn1c(O)c(N=NC(=S)Nc2ccccc2F)c2cc(S(=O)(=O)N3CCOCC3)ccc21` gave an EC50 of 5.09 µM.
In the case of `CCCCN(CCCC)C(=S)N/N=C/c1c(C)[nH]n(-c2ccccc2)c1=O`, the EC50 is reported as 0.399 µM.
With `CCCN(Cc1ccco1)S(=O)(=O)c1ccc(OC)c(OC)c1` the EC50 was > 15 µM (inactive).
With `CCCOc1ccc(C(=O)NNC(=S)NC(=O)CC)cc1` the EC50 was 0.431 µM.
Work on `Cc1cccc(C)c1Nc1c(-c2ccccn2)nc2ccccn12` yielded an EC50 of 6.67 µM.
`Cc1ccc(NC(=S)c2nc3ccccc3[nH]2)cc1` was tested, and the EC50 was 1.08 µM.
`Cc1ccc(/C=C/C(=O)NC(=S)Nc2ccc(S(=O)(=O)Nc3cc(C)on3)cc2)cc1` showed an EC50 of 9.27 µM.
In the case of `CC(C)(C)c1cc(C(=O)NNc2cc(C(F)(F)F)ccc2Cl)n(Cc2ccccc2)n1`, the EC50 is reported as 4.92 µM.
With `CCC(C(=O)N1CCC(N2CCCCC2)CC1)n1nc(C)c2sc3ccccc3c2c1=O` (centres undefined) the EC50 was > 15 µM (inactive).
In the case of `CCCc1ccc(Oc2cn[nH]c2-c2ccc(O)c(C)c2O)cc1`, the EC50 is reported as 1.8 µM.
Work on `CC(C)C1OC2c3cccc4cccc(c34)C2N1c1ccccc1` (centres undefined) yielded an EC50 of 2.57 µM.
`OC(CNCc1ccco1)Cn1c2ccc(Br)cc2c2cc(Br)ccc21` (centres undefined) was tested, and the EC50 was 5.85 µM.
For `Cc1ccc(CNC(=S)NC2CCC(C(C)(C)C)CC2)cc1` (centres undefined), the EC50 was 3.4 µM.
`COc1ccc(-c2nc(NC(C)=O)sc2-c2ccc(OC)cc2)cc1` showed an EC50 of 4.05 µM.
With `Cc1ccc2nc(-c3ccc(NS(=O)(=O)c4ccc(F)c(F)c4)cc3)sc2c1` the EC50 was 2.69 µM.
`O=[N+]([O-])c1c(NCCO)cc(Sc2nc3ccccc3s2)c2nonc12` was tested, and the EC50 was 2.95 µM.
`O=C(N/N=C/c1sc2ccccc2c1O)c1cccc2ccccc12` showed an EC50 of 2.52 µM.
Molecule `O=C(NNc1nc(-c2ccc(F)cc2)cs1)c1ccccc1` has an EC50 of 2.17 µM.
`CCCOC(=O)c1ccc(Oc2cn[nH]c2-c2ccc(OCC)cc2O)cc1` gave an EC50 of 1.37 µM.
`O=C(NC(=S)NNC(=O)c1ccccc1O)c1ccccc1` showed an EC50 of 2.35 µM.
With `CCC(=O)Nc1nc2ccccc2n1Cc1ccccc1C` the EC50 was 1.62 µM.
`CCOC(=O)C(C(=O)OCC)c1cc(Br)c2noc3c2c1C(=O)c1ccccc1-3` showed an EC50 of 3.7 µM.
`COc1ccc([N+](=O)[O-])cc1NC(=S)NC(NC(=O)C(c1ccccc1)c1ccccc1)C(Cl)(Cl)Cl` (centres undefined) gave an EC50 of 12 µM.
Work on `COc1ccc(-c2cc(C3CCN(Cc4cccc(C(F)(F)F)c4)CC3)[nH]n2)cc1` yielded an EC50 of 9.26 µM.
`Cc1ccccc1C(=O)Nc1nc(=S)ss1` showed an EC50 of 2.46 µM.
With `N#Cc1c(Nc2cccc(F)c2)sc2c(O)cc(=O)[nH]c12` the EC50 was 0.861 µM.
In the case of `Cc1cc(C)c2ccc(N)nc2c1O`, the EC50 is reported as 3.33 µM.
In the case of `Cc1ccccc1Nc1nc(N)nc(CN(C)Cc2ccccc2Cl)n1`, the EC50 is reported as 1.76 µM.
Work on `CCOC(=O)c1sc2nc3c(SCC(=O)O)cc(C(=O)c4cc(F)ccc4O)cn3c(=O)c2c1C` yielded an EC50 of 2.11 µM.
With `O=[N+]([O-])/C=C/c1ccc2c(ccn2Cc2ccccc2)c1` the EC50 was 3.04 µM.
`CN(C)CCNC=C(C(=O)Nc1ccc(Cl)cc1Cl)C(=O)Nc1ccc(Cl)cc1Cl` was tested, and the EC50 was 3.38 µM.
For `O=C(Nc1nnc(-c2ccncc2)o1)c1ccc2ccccc2c1`, the EC50 was 5.02 µM.
With `Cc1cccc(N=Nc2c(C)nn(-c3ccccc3)c2N)c1C` the EC50 was 11.8 µM.
For `CC1=CC(C)(C)n2c(O)c(N=N)c3c(C)c(C)cc1c32`, the EC50 was 5.67 µM.
In the case of `C/C(=N\NC(=S)NCCc1ccccc1)c1ccc(Cl)cc1Cl`, the EC50 is reported as 6.56 µM.
For `CCC(C(=O)NCC1CCCO1)n1nc(C)c2sc3ccccc3c2c1=O` (centres undefined), the EC50 was > 15 µM (inactive).
With `Cc1cc(/C=C2/C(=N)N3C(=NC2=O)SN=C3S(C)(=O)=O)c(C)n1-c1ccc(F)cc1` the EC50 was 4.98 µM.
`O=[N+]([O-])c1ccc(/C=N/Nc2nc(N3CCCCCC3)nc(N3CCCCCC3)n2)o1` was tested, and the EC50 was 0.618 µM.
`O=C1c2ccccc2C(=O)c2[nH]c(=O)[nH]c21` was tested, and the EC50 was 9.21 µM.
`CC(=O)NC(c1ccc(Cl)cc1Cl)c1ccc2cccnc2c1O` (centres undefined) gave an EC50 of 4.2 µM.
